From patent US9045490B2, “Use of parthenolide derivatives as antileukemic and cytotoxic agents” (University of Kentucky, priority 2003, dated 2015)

Key:
[1] = tested on: primary acute myelogenous leukemia (AML) cells; assay: Assay for antileukemic activity (Annexin V/7-AAD apoptosis analysis by flow cytometry); assay type: cell-based; settings: 24 hours of culture
Method: For apoptosis analysis, one million primary acute myelogenous leukemia (AML) cells were washed with cold PBS and resuspended in 200 microliters of Annexin binding buffer (10 mM HEPES/NaOH pH 7.4; 140 mM NaCl; 2.5 mM CaCl2). Annexin V-FITC (Pharmingen) and 0.25 mg/mL 7-AAD (7-aminoactinomycin D, Molecular Probes, CA) were added and the tubes were incubated at room temperature in the dark for 15 minutes. Cells were then diluted with 200 microliters of Annexin binding buffer and analyzed immediately by flow cytometry. Viable cells were identified as failing to label with Annexin V or 7-AAD. Cells beginning to die label with Annexin V, and as membrane integrity is lost, will also label with 7-AAD. […] Data are normalized to untreated control specimens. The data are in Table 1 for aminoparthenolide derivatives and Table 2 for the salts of some aminoparthenolides.

[2] = tested on: breast cancer cell line mdl-231; assay: Clonogenic assay; assay type: cell-based; settings: mdl-231, 2 μm concentration (parthenolide: similar dosage ranges)
[3] = tested on: normal hematopoietic stem cells; assay: Human-mouse xenograft: NOD/SCID engraftment of normal donor cells treated in vitro; assay type: in vivo; settings: 7.5 micromolar in vitro for 12-18 hours, bone marrow analysed after 6-8 weeks (CD45)
Method: (§1) To assess the effect of parthenolide on primary human stem cell populations, experiments were conducted using transplantation into immune deficient NOD/SCID mice. […] For each experiment, cryopreserved mononuclear cell specimens from normal or AML donors were thawed, and treated in vitro with 7.5 micromolar parthenolide for 12-18 hours. Following culture, 5-10 million cells/animal were injected intravenously into sublethally irradiated (300 Rad) NOD/SCID mice. After 6-8 weeks, animals were sacrificed and bone marrow was analyzed for the presence of human cells using flow cytometry as previously described (Guzman et al., Proc Natl Acad Sci USA 2002; 99: 16220-162253). Human specific antibodies for CD45 were used to assess the level of total engraftment.

[4] = tested on: AML cells (AML stem cell compartment); assay: Human-mouse xenograft: NOD/SCID engraftment of AML cells treated in vitro; assay type: in vivo, human cells in NOD/SCID mice; settings: 7.5 micromolar in vitro for 12-18 hours, bone marrow analysed after 6-8 weeks (CD45)
Method: as §1

[5] = tested on: radiation sensitive cell line A549; assay: Radiation sensitisation by pretreatment, survival fraction; assay type: cell-based; settings: A549, 2.5 micromolar pretreatment
Source text: The radiation sensitive cell line A549 was pretreated with parthenolide concentrations ranging from 0 to 2.5 micromolar. The cells were then subjected to ionizing radiation doses ranging from 0-6Gy and survival fraction of the cells determined. […] Cells not receiving pre-treatment with parthenolide had greater than 50% survival fraction at the highest radiation dose of 6Gy and over 90% survival at 2Gy.

[6] = tested on: breast cancer cell line hbl-100; assay: Clonogenic assay; assay type: cell-based; settings: hbl-100, 2 μm concentration (parthenolide: similar dosage ranges)
[7] = Oral bioavailability in mice: plasma level by LC-MS; assay type: in vivo; settings: mouse, 40 mg/kg oral, LC-MS, average of 5 mice, read-out: plasma level one hour after oral gavage
Method: Preliminary in vivo work was conducted to determine the bioavailability and toxicity of this agent in mice.

[8] = tested on: breast cancer cell line 436; assay: Clonogenic assay; assay type: cell-based; settings: 436 cells, 2 μm concentration (parthenolide: similar dosage ranges)
[9] = tested on: hormone refractory prostate cancer cell line CWR22Rv1; assay: MTS-PMS cellular proliferation assay; assay type: cell-based; settings: at 5 μm, CWR22 MTS-PMS assay
Method: (§2) A 96-well U-bottomed plate (Becton Dickinson Labware, Franklin Lakes, N.J.) at a concentration of 5,000 cells per 50 microliters […] of media was incubated in 5% CO2 at 37° C. for 24 hours. Varying compound concentrations in […] of media were added to the media 24 hours later. Colorimetric readings were obtained using the MTS/PMS system and an ELISA plate reader, after 48 hours of exposure to DMAPT. The readings obtained for each concentration tested were from an average of eight wells. Each experiment was expressed as a percentage of the solvent control and completed at least three times with consistent results. The results presented are an average of three experiments. The hormone refractory prostate cancer cell line CWR22Rv1 was treated with increasing concentrations of parthenolide and DMAPT. for three hours Both parthenolide and DMAPT reduced cellular proliferation by 50% at 5 μm in the CWR22 MTS-PMS assay. Cellular proliferation was also measured in the MTS-PMS assay using four lung cancer cell lines treated with parthenolide and derivatives PIPT ((11S,11,13-dihydro,13-(piperidin-1-yl)parthenolide), 4MEPT (11S,11,13-dihydro,13-(4-methylpiperidin-1-yl)parthenolide) and MAPT (11S,11,13-dihydro,13-dimethylaminoparthenolide). Parthenolide and its derivatives inhibited cellular proliferation in a dose dependent manner between 2 and 10 μM with 70% inhibition at 10 μM in A549, 50% in H460, 40% in H-23 and 40% in H522 (FIGS. 2-5).

[10] = tested on: lung cancer cell line H-23; assay: MTS-PMS cellular proliferation assay; assay type: cell-based
Method: as §2

[11] = tested on: lung cancer cell line A549; assay: MTS-PMS cellular proliferation assay; assay type: cell-based; settings: Homo sapiens
Method: as §2

[12] = tested on: lung cancer cell line H460; assay: MTS-PMS cellular proliferation assay; assay type: cell-based; settings: Homo sapiens, NCI-H460
Method: as §2

[13] = tested on: lung cancer cell line H522; assay: MTS-PMS cellular proliferation assay; assay type: cell-based; settings: Homo sapiens, NCI-H522
Method: as §2

[14] = tested on: Healthy human bone marrow cells; assay: Cytotoxicity to healthy bone marrow cells (same Annexin V/7-AAD assay); assay type: cell-based; settings: 10 μM
Method: For apoptosis analysis, one million primary acute myelogenous leukemia (AML) cells were washed with cold PBS and resuspended in 200 microliters of Annexin binding buffer (10 mM HEPES/NaOH pH 7.4; 140 mM NaCl; 2.5 mM CaCl2). Annexin V-FITC (Pharmingen) and 0.25 mg/mL 7-AAD (7-aminoactinomycin D, Molecular Probes, CA) were added and the tubes were incubated at room temperature in the dark for 15 minutes. Cells were then diluted with 200 microliters of Annexin binding buffer and analyzed immediately by flow cytometry. Viable cells were identified as failing to label with Annexin V or 7-AAD. Cells beginning to die label with Annexin V, and as membrane integrity is lost, will also label with 7-AAD. For each parthenolide derivative, the percentage of viable cells was determined after 24 hours of culture at a 10 micromolar concentration. Data are normalized to untreated control specimens. The data are in Table 1 for aminoparthenolide derivatives and Table 2 for the salts of some aminoparthenolides.
Healthy human bone marrow cells were used in the above assay to test the cytotoxicity of parthenolide. Eighty-five percent of the normal cells survived 10 μM of parthenolide. All the aminoparthenolides evaluated afforded results similar to parthenolide, i.e. the survival rate of healthy human bone marrow cells was over 85% at a concentration of 10 μM.

[15] = 10 μM, normalized to untreated control

Compound: 11S,11,13-Dihydro,13-(4-methylpiperidin-1-yl)parthenolide [Compound 4MePipPT]
- Antileukemic activity [1, 15]: 10 μM, 83%

Compound: 11S,11,13-Dihydro,13-(morpholin-1-yl)parthenolide [MorPT]
- Antileukemic activity ([1]; 20 μM): 20 μM, 20%

Compound: 11S,11,13-Dihydro,13-(pyrrolidin-1-yl)parthenolide [PyrPT]
- Antileukemic activity ([1]; 5 μM): 5 μM, 23%
- Antileukemic activity [1, 15]: 10 μM, 85%
- Antileukemic activity ([1]; 20 μM): 20 μM, 95%

Compound: 11S,11,13-Dihydro,13-(tert-butylamino)parthenolide [tBAPT]
- Antileukemic activity [1, 15]: 10 μM, 20%

Compound: 11S,11,13-Dihydro,13-diethylaminoparthenolide [DEAPT]
- Antileukemic activity [1, 15]: 10 μM, 60%

Compound: 11S,11,13-Dihydro,13-methyl pentyl aminoparthenolide
- Antileukemic activity [1, 15]: 10 μM, 45%

Compound: 11S,11,13-Dihydro,13-methylbutyl aminoparthenolide
- Antileukemic activity [1, 15]: 10 μM, 68%

Compound: 11S,11,13-dihydro,13-(piperidin-1-yl)parthenolide hydrochloride
- Antileukemic activity [1, 15]: 10 μM, 88%

Compound: 11S, 11,13-Dihydro,13-(4-methylpiperidin-1-yl)parthenolide hydrochloride
- Antileukemic activity [1, 15]: 10 μM, 62%

Compound: C=C1CCC2C(CN(CC)CC)C(=O)OC2C2C(=C)CCC12 (centres unmarked) [11H, 13-(N,N-Diethylamino)-dehydrocostuslactone]
- Antileukemic activity [1, 15]: 10 μM, 5%

Compound: C=C1CCC2C(CN(C)C)C(=O)OC2C2C(=C)CCC12 (centres unmarked) [11H, 13-(N,N-Dimethylamino)-dehydrocostuslactone]
- Antileukemic activity [1, 15]: 10 μM,12%

Compound: C=C1CCC2C(CN(C)CCCC)C(=O)OC2C2C(=C)CCC12 (centres unmarked) [11H, 13-(N-Butyl-N-methylamino)-dehydrocostuslactone]
- Antileukemic activity [1, 15]: 10 μM, 8%

Compound: C=CCN(CC=C)CC1C(=O)OC2C1CCC(=C)C1CCC(=C)C12 (centres unmarked) [11H, 13-(N-Diallyl)-dehydrocostuslactone]
- Antileukemic activity [1, 15]: 10 μM, 2%

Compound: C=C1CCC2C(CN(CC)Cc3ccccc3)C(=O)OC2C2C(=C)CCC12 (centres unmarked) [11H, 13-(N-Ethyl-N-benzyl)-dehydrocostuslactone]
- Antileukemic activity [1, 15]: 10 μM, 13%

Compound: C=C1CCC2C(CN(C)CCCCC)C(=O)OC2C2C(=C)CCC12 (centres unmarked) [11H, 13-(N-Methyl-N-pentylamino)-dehydrocostuslactone]
- Antileukemic activity [1, 15]: 10 μM, 0%

Compound: C=C1CCC2C(CN(C)CCC)C(=O)OC2C2C(=C)CCC12 (centres unmarked) [11H, 13-(N-Methyl-N-propylamino)-dehydrocostuslactone]
- Antileukemic activity [1, 15]: 10 μM, 1%

Compound: C=C1CCC2C(CN3CCOCC3)C(=O)OC2C2C(=C)CCC12 (centres unmarked) [11H, 13-(N-Morpholine)-dehydrocostuslactone]
- Antileukemic activity [1, 15]: 10 μM, 10%

Compound: C=C1CCC2C(CN3CCCCC3)C(=O)OC2C2C(=C)CCC12 (centres unmarked) [11H, 13-(N-Piperidine)-dehydrocostuslactone]
- Antileukemic activity [1, 15]: 10 μM, 14%

Compound: C=C1CCC2C(CNCCC)C(=O)OC2C2C(=C)CCC12 (centres unmarked) [11H, 13-(N-Propylamino)-dehydrocostuslactone]
- Antileukemic activity [1, 15]: 10 μM, 24%

Compound: C=C1CCC2C(CN3CCCC3)C(=O)OC2C2C(=C)CCC12 (centres unmarked) [11H, 13-(N-Pyrrolidine)-dehydrocostuslactone]
- Antileukemic activity [1, 15]: 10 μM, 20%

Compound: CC1=CCCC2(C)OC2C2OC(=O)C(CNC3CC3)C2CC1 (centres unmarked) [11S,11,13-Dihydro,13-cyclopropylaminoparthenolide]
- Antileukemic activity [1, 15]: 10 μM, −6%

Compound: CCNCC1C(=O)OC2C1CCC(C)=CCCC1(C)OC21 (centres unmarked) [11S,11,13-Dihydro,13-ethylaminoparthenolide]
- Antileukemic activity [1, 15]: 10 μM, 2%

Compound: CNC[C@H]1C(=O)O[C@H]2[C@H]1CC/C(C)=C/CC[C@@]1(C)O[C@@H]21 [11S,11,13-Dihydro,13-methylaminoparthenolide]
- Antileukemic activity [1, 15]: 10 μM, 4%

Compound: C#CCNCC1C(=O)OC2C1CCC(C)=CCCC1(C)OC21 (centres unmarked) [11S,11,13-Dihydro,13-propargylaminoparthenolide]
- Antileukemic activity [1, 15]: 10 μM, 7%

Compound: CC1=CCCC2(C)OC2C2OC(=O)C(CN3CCCC3)C2CC1.Cl (centres unmarked) [11S, 11,13-Dihydro,13-(pyrrolidin-1-yl)parthenolide hydrochloride]
- Antileukemic activity [1, 15]: 10 μM, 85%

Compound: C/C1=C\CC[C@@]2(C)O[C@H]2[C@H]2OC(=O)[C@H](CN3CCN(C)CC3)[C@@H]2CC1 [Compound 4MePizPT, 11S,11,13-Dihydro,13-(4-methylpiperazin-1-yl)parthenolide]
- Antileukemic activity [1, 15]: 10 μM, 7%

Compound: CC1=CCCC2(C)OC2C2OC(=O)C(CN3CCCCCCC3)C2CC1 (centres unmarked) [HeptaMePipt, 11S,11,13-Dihydro,13-(heptamethyleneimin-1-yl)parthenolide]
- Antileukemic activity [1, 15]: 10 μM, 10%

Compound: CC1=CCCC2(C)OC2C2OC(=O)C(CN3CCCCCC3)C2CC1 (centres unmarked) [HomoPipPT, 11S,11,13-Dihydro,13-(homopiperidin-1-yl)parthenolide]
- Antileukemic activity [1, 15]: 10 μM, 40%

Compound: C=C1C(=O)O[C@@H]2[C@H]3O[C@]3(C)CC/C=C(\C)CC[C@@H]12 [Parthenolide]
- inhibition of proliferation [2]: reduced proliferation
- level of engraftment of treated normal cells in NOD/SCID mice [3]: no reduction in engraftment
- level of engraftment of treated AML cells in NOD/SCID mice [4]: dramatically reduced
- survival fraction ([5]; 2Gy): 10%
- survival fraction ([5]; 6Gy): less than 1%
- inhibition of proliferation [6]: reduced proliferation
- concentration at 1 h [7]: ~200 nM
- inhibition of proliferation [8]: reduced proliferation
- reduction of cellular proliferation [9]: 50%
- inhibition at 10 µM [10]: 40%
- inhibition at 10 µM [11]: 70%
- inhibition at 10 µM [12]: 50%
- inhibition at 10 µM [13]: 40%
- Antileukemic activity [1, 15]: 10 μM, 84%
- survival rate of healthy human bone marrow cells [14]: Eighty-five

Compound: C/C1=C\CC[C@@]2(C)O[C@H]2[C@H]2OC(=O)[C@H](CN3CCCCC3)[C@@H]2CC1 [PipPT, 11S,11,13-Dihydro,13-(piperidin-1-yl)parthenolide]
- Antileukemic activity ([1]; 2.5 μM): 2.5 μM, 71%
- Antileukemic activity ([1]; 5 μM): v5 μM, 91%
